These results are taken from publication PMC4319890, “UFSRAT: Ultra-Fast Shape Recognition with Atom Types –The Discovery of Novel Bioactive Small Molecular Scaffolds for FKBP12 and 11βHSD1” (PLoS ONE, 2015).

The IC50 is the point on the concentration scale where inhibition reaches its midpoint.

In one assay the test system is 11β-HSD1. Further details: method as in PMID 16087724. The following applies: Figure 5 legend; cited from earlier work.
Assay [1] deals with T1, Recombinant human FKBP12 (Homo sapiens, UniProt P62942).
T1 construct: made in house
T1 sequence (P62942 whole entry): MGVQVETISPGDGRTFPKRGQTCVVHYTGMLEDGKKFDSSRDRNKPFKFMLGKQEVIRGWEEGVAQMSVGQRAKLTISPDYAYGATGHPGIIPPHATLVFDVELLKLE
Briefly: Electrospray ionization mass spectrometry (ESI-MS) binding assay. The following applies: 50°C; 100 μM ligand, 5 μM FKBP12, 10% methanol, pH 6.8; read-out: ESI-MS Kd^app. The protocol: Electrospray ionization mass spectrometry. Electrospray-ionization mass spectrometry (ESI-MS) was used to detect binding to FKBP12. Data was collected on a LCQ^TMDECA ion-trap instrument (ThermoQuest) run in the positive ion mode. The analyte was introduced by direct infusion and the following operating parameters were employed: nitrogen flow 100units, analyte flow 6 μl∙min^-1, capillary voltage 3.5 kV, cone voltage 25 V and capillary temperature 50°C. Spectrum were averaged over 300 scans (2s/ scan) and processed using the Bioworks Browser V 3.0 software package and ProMass 2.5 (ThermoScientific). The analyte solution consisted of 100 μM ligand, 5 μM FKBP12 in 10% methanol (v/v), 10 mM ammonium acetate, pH 6.8 incubated for 10 minutes at room temperature. Kd ^app for the interaction between the protein and ligand were calculated from the ratio of the intensity of the ion signal from free protein and protein in complex with ligand using the method of Tjernberg.

Assay [2] addresses T1, Recombinant human FKBP12. Description: Thermal denaturation fluorescence (TDF) binding assay. The method, then:
Thermal denaturation fluorescence (TDF). A fluorescence based thermal denaturation assay was used to detect binding to FKBP12 essentially as described in the study of Lo [38]. Final conditions were: 50 mM ammonium acetate, pH 7.0; 10 μM FKBP12; 250 μM screening compound and 5x SYPRO orange dye (Invitrogen). […] Protein was melted over the temperature range 20 to 80°C; 0.5°C increment, 30s hold. Compounds were screened for fluorescence in the absence of protein; all samples were solvent matched and repeated in triplicate on 3 separate experiments. Apparent equilibrium dissociation constants (Kd ^app) for the interaction between the protein and ligands were calculated from the change in mid-point melting temperature of the protein (Tm) on addition of ligand and transformed to 25°C using a benchmark value for the enthalpy of ligand binding of -5 kcal∙mol^-1 [39].

For the next assay, the target named is T2, recombinant h11β-HSD1 (Homo sapiens, UniProt P28845).
T2 construct: made in house
T2 sequence (P28845 whole entry): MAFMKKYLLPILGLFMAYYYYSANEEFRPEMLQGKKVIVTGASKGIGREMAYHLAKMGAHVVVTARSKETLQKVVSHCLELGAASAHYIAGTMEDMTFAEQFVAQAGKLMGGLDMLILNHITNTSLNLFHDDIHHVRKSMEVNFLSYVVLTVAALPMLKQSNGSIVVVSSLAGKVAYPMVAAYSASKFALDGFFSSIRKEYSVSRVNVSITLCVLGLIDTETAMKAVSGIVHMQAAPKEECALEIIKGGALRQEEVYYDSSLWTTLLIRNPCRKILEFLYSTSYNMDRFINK
Briefly: Fluorescence assay, inhibition of 11β-HSD1 dehydrogenase activity. It counts as biochemical. Particulars: conversion of cortisol to cortisone; 1 μM 11β-HSD1, 200 μM cortisol, 500 μM NADP, pH 7.7, 25°C; read-out: Fluoresc. Ki^app. The method, then: Testing for inhibition of 11β-HSD1 dehydrogenase activity. Candidate compounds were tested for inhibition of the conversion of cortisol to cortisone by recombinant h11β-HSD1. The dehydrogenation of cortisol is accompanied by the reduction of NADP^+ to NADPH; this was followed spectrophotometrically and scaled to a NADPH calibration curve. The excitation and emission wavelengths were 340 and 458 nm. (SpectraMax M5, Molecular Devices). The experimental conditions were 500 μM NADP, 1 μM 11β-HSD1, 200 μM cortisol 50 mM Tris, pH 7.7, 50 mM NaCl; 25°C. Reactions were carried out in sextuplicate. Ki ^app were derived from a fit of the rate of the reaction as a function of inhibitor concentration; Kaleidagraph, V4.0 [43]

Assay [3] has as its target T3, HEK-293 cells transfected with human 11β-HSD1 (Homo sapiens, UniProt P28845).
T3 construct: HEK-293 cells stably transfected with the full length human hsd11b1 gene; expressed in transfected cells; host or cells: HEK-293
Description: Scintillation proximity assay (SPA), inhibition of 11β-HSD1 reductase activity in cells. The format is cell-based. The following applies: for IC50: conversion of cortisone to cortisol, 40 nM [3H]-cortisone, 1% DMSO. The method, then:
Testing for inhibition of 11β-HSD1 reductase activity in cells. Candidate compounds were tested for inhibition of the conversion of cortisone to cortisol by 11β-HSD1 expressed in HEK-293 cells stably transfected with the full length human hsd11b1 gene as previously described. An established scintillation proximity assay (SPA) was carried out in a 96-well plate format, with appropriate controls. Experiments were set up in triplicate with 8 inhibitor concentration points per compound, spanning 3.5 orders of magnitude. Final solution conditions: 40 nM [^3H]-cortisone; 50 mM Tris pH 8.0, 50 mM NaCl; 1% DMSO. The anti-cortisol antibody was purchased from HyTest, Finland; radiometric quantification was carried out on a Perkin Elmer TopCount instrument. The percentage inhibition was determined relative to a non-inhibited control and the IC50 determined from a plot of percentage inhibition against compound concentration. Data were fitted global nonlinear regression using Kaleidagraph V4.0 (Synergy Software).

The next assay addresses FKBP12. Further details: method as in PMID 18038971. The following applies: 27°C printed for Q2; cited from earlier work.
[4] abbreviates: at the mid-point melting temperature Tm, 10 μM FKBP12, 250 μM compound, pH 7.0, read-out: TDF Kd^app at Tm.
[5] abbreviates: value in brackets, transformed to 25°C using a benchmark enthalpy of ligand binding of -5 kcal/mol, read-out: TDF Kd^app (transformed 25°C) (converted).

T3 sequence (P28845 whole entry): as above

As for `CC1(C)[C@@H](OC(=O)CCC(=O)O)CC[C@]2(C)[C@H]3C(=O)C=C4[C@@H]5C[C@@](C)(C(=O)O)CC[C@]5(C)CC[C@@]4(C)[C@]3(C)CC[C@@H]12` [Carbenoxolone], the “inhibitor of 11β-HSD1 (potency, type not given)” value in the assay on 11β-HSD1 is 0.02 µM.

Regarding `O=C(CNC(=O)c1ccccc1C(=O)O)c1ccccc1` [Compound 1, 2-(phenacylcarbamoyl)benzoic acid], the results for the Kd on Recombinant human FKBP12 [1], at Recombinant human FKBP12 [2] (setting [4]) and at Recombinant human FKBP12 [2] (setting [5]) were 313 ± 30 µM, 548 ± 38 µM and 252 µM, respectively.

Turning to `CC(NC(=O)c1ccccc1)C(O)c1ccccc1` (centres unmarked) [Compound 2, N-(2-hydroxy-1-methyl-2-phenyl-ethyl)benzamide], the Kd at Recombinant human FKBP12 [1] is 399 ± 45 µM; at Recombinant human FKBP12 [2] (setting [4]) it was 575 ± 70 µM; at Recombinant human FKBP12 [2] (setting [5]) it was 266 µM.

For the molecule `O=C(NCC(O)c1ccccc1)c1cccc(Cl)c1` (centres unmarked) [Compound 3, 3-chloro-N-(2-hydroxy-2-phenyl-ethyl)benzamide], the Kd at Recombinant human FKBP12 [1] was 383 ± 52 µM; on Recombinant human FKBP12 [2] (setting [4]) it was 568 ± 84 µM; on Recombinant human FKBP12 [2] (setting [5]) it was 263 µM.

For `CC(=O)Nc1ccccc1NC(=O)CCc1ccccc1` [Compound 4, N-(2-acetamidophenyl)-3-phenyl-propanamide], the figures for the Kd at Recombinant human FKBP12 [1], on Recombinant human FKBP12 [2] (setting [4]) and at Recombinant human FKBP12 [2] (setting [5]) were 281 ± 42 µM, 648 ± 88 µM and 303 µM, respectively.

Consider `COc1ccc(/C=C/C(=O)/C=C/c2ccc(OC)c(OC)c2)cc1OC` [Compound 5, (1E,4E)-1,5-bis(3,4-dimethoxyphenyl)penta-1,4-dien-3-one], for which the Ki at recombinant h11β-HSD1 was 142 ± 66 µM. In addition, the IC50 in assay [3] stood at 11.3 ± 2.6 µM.

As to `COc1ccc2[nH]c(SCC(=O)c3ccc(O)c(O)c3)nc2c1` [Compound 7, 1-(3,4-dihydroxyphenyl)-2-[(6-methoxy-1H-benzimidazol-2-yl)sulfanyl]ethanone], the Ki on recombinant h11β-HSD1 was 248 ± 73 µM. Besides, the IC50 in assay [3] came out at 7.9 ± 3 µM.

For `COc1ccc(C(=O)CSc2ccccn2)cc1` [Compound 8, 1-(4-methoxyphenyl)-2-(2-pyridylsulfanyl)ethanone], the Ki at recombinant h11β-HSD1 is 26 ± 7 µM. Moreover, the concentration for half-maximal inhibition (IC50) in assay [3] was 0.067 ± 0.003 µM. Moreover, the “affinity IC50 in a cell based assay (in words)” value in assay [3] (discussion) is “low nanomolar”.

As to `Cc1ccc(SCC(=O)N2CCOCC2)cc1` [Compound Q2, 1-morpholino-2-(p-tolylsulfanyl)ethanone, reference compound], the Kd was 15 µM on FKBP12, 197 ± 74 µM at Recombinant human FKBP12 [1], 28 ± 8 µM on Recombinant human FKBP12 [2] (setting [4]) and 6 µM at Recombinant human FKBP12 [2] (setting [5]).

As for `Cc1ccc(S(=O)(=O)CC(=O)N2CCOCC2)cc1` [Compound Q3, 2-[(4-methylbenzene)-sulfonyl]-1-(morpholin-4-yl)ethan-1-one], on FKBP12, the Kd was 95 µM.

As to “Dihydroxyphenyl)-2-oxoethyl]sulfanyl}-1H-tetrazol-1-yl)benzamide [Compound 6]”, on recombinant h11β-HSD1, the Ki came out at 47 ± 13 µM.
